What was measured:
Experiment in all cases: relative viability (nuclei count vs DMSO), 5 days (fraction); higher = more cells survive
[1] = compound: O=C(CCCCCCC(=O)Nc1ccccc1)NO [Vorinostat] + CC(=O)c1c(C)c2cnc(Nc3ccc(N4CCNCC4)cn3)nc2n(C2CCCC2)c1=O [Palbociclib] (partner 0.5 µM)
Method in brief: (§1)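 Lung cancer cell lines were seeded in 1536-well plates and dosed by pin tool the next day, with either a single drug or a fixed anchor-drug dose combined with five library-drug doses (not always all listed) spaced in √10 steps. Five days later, one step fixed the cells and stained their nuclei (final 0.05% Triton X-100, 1% formaldehyde, 1 ug/ml Hoechst), and nuclei were counted on 4× images. Relative viability is the nuclei count in treated wells divided by the count in vehicle wells, and each value is the median of duplicate plates.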

[2] = compound: O=C(CCCCCCC(=O)Nc1ccccc1)NO [Vorinostat] + CC(C)C[C@H](NC(=O)[C@H](Cc1ccccc1)NC(=O)c1cnccn1)B(O)O [Bortezomib] (partner 0.002 µM)
Method in brief: as §1

[3] = compound: O=C(CCCCCCC(=O)Nc1ccccc1)NO [Vorinostat] + COc1cc2c(Oc3ccc(NC(=O)C4(C(=O)Nc5ccc(F)cc5)CC4)cc3F)ccnc2cc1OCCCN1CCOCC1 [Foretinib] (partner 0.25 µM)
Method in brief: as §1

[4] = compound: O=C(CCCCCCC(=O)Nc1ccccc1)NO [Vorinostat] + CS(=O)(=O)N1CCN(Cc2cc3nc(-c4cccc5[nH]ncc45)nc(N4CCOCC4)c3s2)CC1 [Pictilisib] (partner 1 µM)
Method in brief: as §1

[5] = compound: O=C(CCCCCCC(=O)Nc1ccccc1)NO [Vorinostat] + C[C@@H](Oc1cc(-c2cnn(C3CCNCC3)c2)cnc1N)c1c(Cl)ccc(F)c1Cl [Crizotinib] (partner 1 µM)
Method in brief: as §1

Row | Cell Line | relative viability ([1]; first compound 0.253 µM) | relative viability ([1]; first compound 0.8 µM) | relative viability ([1]; first compound 2.53 µM) | relative viability ([1]; first compound 8 µM) | relative viability ([2]; first compound 0.253 µM) | relative viability ([2]; first compound 0.8 µM) | relative viability ([2]; first compound 2.53 µM) | relative viability ([2]; first compound 8 µM) | relative viability ([3]; first compound 0.253 µM) | relative viability ([3]; first compound 0.8 µM) | relative viability ([3]; first compound 2.53 µM) | relative viability ([3]; first compound 8 µM) | relative viability ([4]; first compound 0.253 µM) | relative viability ([4]; first compound 0.8 µM) | relative viability ([4]; first compound 2.53 µM) | relative viability ([4]; first compound 8 µM) | relative viability ([5]; first compound 0.253 µM) | relative viability ([5]; first compound 0.8 µM) | relative viability ([5]; first compound 2.53 µM) | relative viability ([5]; first compound 8 µM)
1 | 201T | 0.363 | 0.357 | 0.379 | 0.242 | 1.11 | 1.1 | 1.1 | 0.641 | 1.25 | 0.983 | 0.511 | 0.165 | 0.741 | 0.605 | 0.522 | 0.313 | 1.12 | 1.03 | 1.02 | 0.317
2 | A549 |  |  |  |  |  |  |  |  | 0.929 | 0.478 | 0.0393 | 0.0151 | 0.601 | 0.4 | 0.0772 | 0.0417 | 0.528 | 0.107 | 0.054 | 0.0379
3 | A-427 | 0.522 | 0.496 | 0.331 | 0.227 | 0.991 | 1.04 | 0.723 | 0.21 | 1.21 | 1.13 | 0.561 | 0.191 | 0.65 | 0.595 | 0.586 | 0.153 | 0.954 | 0.847 | 0.274 | 0.096
4 | BEN | 0.433 | 0.455 | 0.301 | 0.155 | 0.941 | 0.479 | 0.201 | 0.0496 | 0.8 | 0.414 | 0.149 | 0.0734 | 0.659 | 0.332 | 0.132 | 0.0393 | 1.06 | 0.553 | 0.147 | 0.0454
5 | CAL-12T | 0.61 | 0.386 | 0.182 | 0.0984 | 1.22 | 0.984 | 0.406 | 0.148 | 1.34 | 1.14 | 0.721 | 0.119 | 0.48 | 0.435 | 0.209 | 0.149 | 0.901 | 0.443 | 0.207 | 0.0708
6 | COR-L23 | 0.281 | 0.19 | 0.0948 | 0.0728 | 0.985 | 0.683 | 0.131 | 0.0488 | 1.02 | 0.671 | 0.152 | 0.0834 | 0.728 | 0.451 | 0.0944 | 0.0511 | 0.542 | 0.25 | 0.0669 | 0.0606
7 | COR-L 105 | 0.402 | 0.396 | 0.283 | 0.284 | 1.3 | 0.617 | 0.292 | 0.267 | 1.27 | 0.996 | 0.915 | 0.246 | 0.438 | 0.261 | 0.262 | 0.201 | 0.65 | 0.383 | 0.221 | 0.199
8 | ChaGo-K-1 | 0.943 | 0.874 | 0.529 | 0.182 | 0.954 | 0.932 | 0.467 | 0.282 | 1 | 0.863 | 0.559 | 0.189 | 0.832 | 0.597 | 0.345 | 0.246 | 1.23 | 0.98 | 0.408 | 0.261
9 | EKVX | 0.401 | 0.398 | 0.199 | 0.125 | 1.14 | 1.11 | 0.561 | 0.175 | 0.859 | 0.931 | 0.714 | 0.138 | 0.475 | 0.441 | 0.21 | 0.103 | 0.958 | 0.891 | 0.428 | 0.152

Reference: the supplement of paper PMC10307832
